{"source": "paper PMC7462607", "about": "(eLife, 2020)", "key": {"CCNK": {"system": "CCNK", "assay": "In vivo polyubiquitination of CCNK (HEK293T)", "type": "cell-based, Homo sapiens", "conditions": "wild-type CDK12 co-expressed", "description": "Wild-type and G731E/R ORFs of 3 × FLAG-CDK12, either full length or the kinase domain (from resides 715–1052), were cloned into the pCDNA3.1-N-3xFLAG vector. An ORF encoding CCNK (NM_001099402.2) was PCR amplified with A549 cDNA and cloned into a pCDNA3.1-C-3xHA vector. pCMV-8 ×His Ub was a gift from Dr. William Kaelin at Dana Farber Cancer Institute of Harvard. To set up cells for the in vivo ubiquitination assay, 0.6 million HEK293T cells were seeded per well in six-well tissue-culture plates. After overnight attachment, these cells were transfected with 500 ng of pCMV 8 × His Ub, 25 ng of pCDNA3.1-CCNK-3xHA, and 50 ng of pCDNA3.1-3xFLAG-CDK12. Two days later, cells were pretreated with 1 µM of bortezomib for 2 hr, followed by treatment with DMSO or three doses of HQ461 (1, 3, 10 µM) for 4 hr. Cells from each well were rinsed once with DPBS and lysed in 500 μL of buffer 1 (25 mM Tris-HCl, pH 8.0, 8 M urea, 10 mM imidazole) freshly supplemented with one units/µL of benzonase and 1x cOmplete, Mini, EDTA-free protease inhibitor cocktail (Roche, Bazel, Switzerland). Lysates were clarified by spinning at 15,000 xg at 4°C for 10 min. Clarified lysate of each sample was mixed with 10 µL of Ni NTA magarose beads (SMART Life Sciences, Changzhou, China, SM00801) prewashed with lysis buffer. […]"}, "[1]": {"molecular_target": "T1, CDK12/CCNK with DDB1-CUL4-RBX1 (Homo sapiens, UniProt Q9NYV4)", "T1 construct": "made in house; host or cells: 293F cells (CDK12/CCNK, UBA1, UBE2G1, UBE2D3, CUL4A/RBX1); Sf9 (His-DDB1); E. coli BL21(DE3) (His-ubiquitin)", "T1 sequence (Q9NYV4 1-1481 isoform Q9NYV4-2)": "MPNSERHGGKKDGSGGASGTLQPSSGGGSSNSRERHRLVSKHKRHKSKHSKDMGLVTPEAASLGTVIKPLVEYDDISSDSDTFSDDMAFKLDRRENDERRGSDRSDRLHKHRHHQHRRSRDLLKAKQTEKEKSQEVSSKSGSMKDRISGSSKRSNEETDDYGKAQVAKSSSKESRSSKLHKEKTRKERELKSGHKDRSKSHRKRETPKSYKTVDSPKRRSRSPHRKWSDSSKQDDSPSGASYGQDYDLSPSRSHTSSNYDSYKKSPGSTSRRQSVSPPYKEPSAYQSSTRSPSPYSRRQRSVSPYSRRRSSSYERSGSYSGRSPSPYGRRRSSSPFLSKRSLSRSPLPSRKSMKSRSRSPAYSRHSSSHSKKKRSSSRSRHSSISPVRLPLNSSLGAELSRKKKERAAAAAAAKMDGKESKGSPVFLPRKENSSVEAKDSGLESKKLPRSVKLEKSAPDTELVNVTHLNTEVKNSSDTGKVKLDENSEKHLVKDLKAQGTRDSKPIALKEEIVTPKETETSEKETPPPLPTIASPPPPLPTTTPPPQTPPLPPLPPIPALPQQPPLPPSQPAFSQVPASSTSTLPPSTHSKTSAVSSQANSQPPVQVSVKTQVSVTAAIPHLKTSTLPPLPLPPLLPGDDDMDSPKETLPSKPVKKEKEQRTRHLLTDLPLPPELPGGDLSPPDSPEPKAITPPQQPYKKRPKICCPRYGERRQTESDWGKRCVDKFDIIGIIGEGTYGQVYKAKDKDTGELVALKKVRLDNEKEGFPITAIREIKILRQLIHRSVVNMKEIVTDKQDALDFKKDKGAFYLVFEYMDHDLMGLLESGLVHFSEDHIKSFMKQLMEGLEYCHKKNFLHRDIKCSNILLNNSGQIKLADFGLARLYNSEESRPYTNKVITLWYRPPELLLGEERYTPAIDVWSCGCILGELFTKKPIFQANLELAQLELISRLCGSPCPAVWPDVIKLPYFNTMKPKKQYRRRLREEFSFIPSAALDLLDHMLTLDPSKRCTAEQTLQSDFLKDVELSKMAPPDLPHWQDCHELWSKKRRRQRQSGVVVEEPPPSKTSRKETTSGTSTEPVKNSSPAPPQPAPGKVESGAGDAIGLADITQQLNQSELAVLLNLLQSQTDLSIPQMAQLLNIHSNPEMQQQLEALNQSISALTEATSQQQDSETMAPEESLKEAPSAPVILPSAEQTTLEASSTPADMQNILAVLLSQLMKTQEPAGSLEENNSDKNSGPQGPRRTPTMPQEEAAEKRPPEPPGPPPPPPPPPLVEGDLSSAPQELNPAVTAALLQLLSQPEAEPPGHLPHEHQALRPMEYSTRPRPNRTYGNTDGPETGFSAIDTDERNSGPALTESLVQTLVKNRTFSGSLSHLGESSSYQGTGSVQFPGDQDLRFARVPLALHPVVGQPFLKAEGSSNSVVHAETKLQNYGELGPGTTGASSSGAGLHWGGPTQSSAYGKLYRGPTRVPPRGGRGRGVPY", "T1 sequence (O75909 whole entry partner)": "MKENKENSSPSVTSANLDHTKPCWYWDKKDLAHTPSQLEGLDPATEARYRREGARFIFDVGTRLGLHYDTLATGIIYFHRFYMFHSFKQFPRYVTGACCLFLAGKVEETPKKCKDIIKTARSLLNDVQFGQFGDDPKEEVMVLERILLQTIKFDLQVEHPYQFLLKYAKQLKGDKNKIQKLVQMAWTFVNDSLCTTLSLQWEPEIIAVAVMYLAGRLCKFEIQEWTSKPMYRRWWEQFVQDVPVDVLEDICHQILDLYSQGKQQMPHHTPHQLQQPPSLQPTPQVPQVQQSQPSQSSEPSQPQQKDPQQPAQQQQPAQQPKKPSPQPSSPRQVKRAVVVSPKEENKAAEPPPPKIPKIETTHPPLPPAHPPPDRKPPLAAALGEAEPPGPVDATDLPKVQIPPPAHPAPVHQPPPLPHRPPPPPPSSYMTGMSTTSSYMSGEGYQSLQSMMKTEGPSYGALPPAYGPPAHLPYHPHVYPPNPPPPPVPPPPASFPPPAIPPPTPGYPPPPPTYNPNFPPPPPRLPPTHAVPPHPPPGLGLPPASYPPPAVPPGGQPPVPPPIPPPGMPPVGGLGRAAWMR", "T1 sequence (Q16531 whole entry partner)": "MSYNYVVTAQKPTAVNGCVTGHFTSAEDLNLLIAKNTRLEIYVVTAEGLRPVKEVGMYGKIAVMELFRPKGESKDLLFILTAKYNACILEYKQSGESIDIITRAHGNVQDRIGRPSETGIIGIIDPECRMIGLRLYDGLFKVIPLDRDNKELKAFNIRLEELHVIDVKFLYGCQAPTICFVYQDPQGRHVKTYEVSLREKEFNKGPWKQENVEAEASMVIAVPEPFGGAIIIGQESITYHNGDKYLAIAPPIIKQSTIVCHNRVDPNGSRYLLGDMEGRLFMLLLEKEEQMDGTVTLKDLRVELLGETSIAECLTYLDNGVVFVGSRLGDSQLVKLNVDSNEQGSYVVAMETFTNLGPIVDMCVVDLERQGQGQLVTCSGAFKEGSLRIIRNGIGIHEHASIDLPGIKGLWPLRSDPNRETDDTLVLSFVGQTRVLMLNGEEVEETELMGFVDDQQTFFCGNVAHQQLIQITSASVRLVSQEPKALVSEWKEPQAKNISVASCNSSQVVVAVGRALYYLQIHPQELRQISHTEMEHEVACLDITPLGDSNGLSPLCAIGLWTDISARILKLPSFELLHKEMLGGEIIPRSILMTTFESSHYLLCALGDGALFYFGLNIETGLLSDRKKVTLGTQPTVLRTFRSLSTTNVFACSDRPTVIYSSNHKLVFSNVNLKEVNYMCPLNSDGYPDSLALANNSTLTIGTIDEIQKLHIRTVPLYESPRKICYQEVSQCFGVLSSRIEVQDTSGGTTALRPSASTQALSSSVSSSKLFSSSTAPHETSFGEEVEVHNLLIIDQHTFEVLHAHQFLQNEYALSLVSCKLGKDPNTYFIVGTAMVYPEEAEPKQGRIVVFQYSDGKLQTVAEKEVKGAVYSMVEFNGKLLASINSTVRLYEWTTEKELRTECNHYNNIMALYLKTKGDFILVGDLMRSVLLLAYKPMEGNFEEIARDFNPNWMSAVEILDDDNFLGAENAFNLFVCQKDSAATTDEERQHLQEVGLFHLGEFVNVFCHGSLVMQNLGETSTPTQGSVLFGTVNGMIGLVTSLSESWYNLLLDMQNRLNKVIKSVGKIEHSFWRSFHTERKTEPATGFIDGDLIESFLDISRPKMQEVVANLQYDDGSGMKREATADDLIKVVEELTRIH", "T1 sequence (Q13619 whole entry partner)": "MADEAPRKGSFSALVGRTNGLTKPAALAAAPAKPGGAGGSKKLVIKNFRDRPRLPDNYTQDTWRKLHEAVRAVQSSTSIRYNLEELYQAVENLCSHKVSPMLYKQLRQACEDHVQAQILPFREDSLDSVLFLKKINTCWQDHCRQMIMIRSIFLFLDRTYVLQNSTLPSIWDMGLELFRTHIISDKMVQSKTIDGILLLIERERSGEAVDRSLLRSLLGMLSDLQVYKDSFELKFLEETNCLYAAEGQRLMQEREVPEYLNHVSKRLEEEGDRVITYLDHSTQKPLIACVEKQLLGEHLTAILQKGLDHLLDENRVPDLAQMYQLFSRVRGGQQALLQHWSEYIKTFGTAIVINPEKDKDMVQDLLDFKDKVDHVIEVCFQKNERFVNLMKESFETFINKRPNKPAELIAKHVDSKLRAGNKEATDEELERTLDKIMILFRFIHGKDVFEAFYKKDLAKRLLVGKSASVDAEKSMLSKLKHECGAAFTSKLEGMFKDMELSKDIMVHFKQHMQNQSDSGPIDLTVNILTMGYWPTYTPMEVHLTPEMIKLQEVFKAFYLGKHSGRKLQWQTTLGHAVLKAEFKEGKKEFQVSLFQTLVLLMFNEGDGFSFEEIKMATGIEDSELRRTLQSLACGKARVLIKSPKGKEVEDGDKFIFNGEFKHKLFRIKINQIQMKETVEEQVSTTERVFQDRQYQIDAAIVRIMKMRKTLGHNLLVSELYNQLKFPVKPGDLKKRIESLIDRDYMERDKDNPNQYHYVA", "T1 sequence (P62877 whole entry partner)": "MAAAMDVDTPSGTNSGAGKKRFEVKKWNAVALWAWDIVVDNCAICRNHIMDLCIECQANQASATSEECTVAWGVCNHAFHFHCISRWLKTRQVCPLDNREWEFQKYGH", "assay": "In vitro ubiquitination of CCNK", "type": "biochemical", "conditions": "E1, E2, E3 and HQ461 present", "description": "Human Ubiquitin ORF was cloned into pET28a vector with an N-terminal 6xHis tag. The resulting pET28a-6xHis-Ub plasmid was transformed into the E. coli strain BL21 (DE3) and grown at 37°C until OD600 reached ~0.8. His-Ub expression was induced overnight by 0.5 mM IPTG at 18°C. Cells were collected by centrifugation at 4000 g and resuspended with lysis buffer containing 50 mM Tris-HCl, pH 7.5, 500 mM NaCl, 20 mM imidazole, 5% glycerol. Cell lysis was performed by French Press. After 20,000 g centrifugation for 1 hr at 4°C, the supernatant was incubated with Ni-NTA resin. After extensive wash with lysis buffer, His-Ub was eluted from Ni-NTA resin with 50 mM Tris-HCl, pH 7.5, 500 mM NaCl, 300 mM imidazole, 5% glycerol. Fractions containing His-Ub were pooled and concentrated, followed by gel filtration on a Superdex 200 10/300 GL column (GE Healthcare, Chicago, USA) in gel filtration buffer (50 mM Tris-HCl, pH7.5, 10 mM NaCl, 1 mM DTT). Fractions containing His-Ub were pooled and concentrated by a 3 KDa MWCO Ultra centrifugal filter (Amicon), flash frozen with liquid nitrogen, and stored at −80°C before use.\nHuman ORFs encoding UBA1 (residues 49–1058, NP_003325.2), UBE2G1 (NP_003333.1), UBE2D3 (NP_003331.1), CUL4A (NP_001008895.1) were cloned into pPB-CAG-1xFLAG vector. ORF encoding human RBX1 (NP_055063.1) was cloned into pPB-CAG vector without a tag. […]"}}, "data": [{"smiles": "Cc1cccc(Nc2nc(CC(=O)Nc3ncc(C)s3)cs2)n1", "note": "[HQ461, 2-(2-((6-methylpyridin-2-yl)amino)thiazol-4-yl)-N-(5-methylthiazol-2-yl)acetamide]", "values": [{"measurement": "CCNK polyubiquitination in cells", "setting": "CCNK", "value": "increased CCNK polyubiquitination"}, {"measurement": "in vitro polyubiquitination", "setting": "[1]", "value": "polyubiquitination of CCNK but not CDK12"}]}]}
